The source of these data is patent US12172983B2, “EGFR inhibitors” (Blueprint Medicines Corporation, priority 2019, dated 2024).

Where two headings read alike, the source gives them in different places.

The target of one assay is T1, EGFR (L858R T790M C797S) (Homo sapiens, UniProt P00533, C797S/L858R/T790M).
T1 construct: purchased SignalChem E10-122VG
As to the kind of experiment: Biochemical EGFR inhibition assay (Caliper mobility shift), EGFR LRTMCS mutant. The note with it: inhibitory activity against EGFR LRTMCS mutant; apparent IC50; read-out: Ext Enz LRTMCS. The method, boiled down: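 Apparent IC50s were derived by plotting percent activity against the log of compound concentration. Activity was measured as phosphopeptide electrophoretically separated from substrate, after reactions at room temperature reached 10% to 20% phosphorylation and were halted with 35 mM EDTA.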

Assay [1] has as its system phosphorylation of EGFR (Tyr1068) in NCI-H1975 cell line that harbors the EGFR L858R T790M mutations. As to the kind of experiment: NCI-H1975 pEGFR AlphaLISA assay. It counts as cell-based. Conditions: 4-5 hours incubation, read-out: Ext pEGFR H1975. The method, boiled down:
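Phospho-EGFR Tyr1068 AlphaLISA readout: lysates taken from compound-treated H1975 cells (L858R T790M EGFR) after a 4-5 h exposure at 37 °C. Cells had adhered overnight beforehand. IC50 derived by plotting % pEGFR inhibition against log compound concentration.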

Setting [2] is: Homo sapiens, NCI-H1975, inhibition of phosphorylation of mutant EGFR in NCI-H1975 cells.

Regarding `CO[C@@H]1[C@H](F)CN(c2nccc(Nc3cc4c(C(C)C)ccc(N5C[C@H](CS(C)(=O)=O)[C@H]5C)c4cn3)n2)C[C@@H]1O` (single isomer, unassigned) [Compound 202, (3S,4S,5R)-5-fluoro-1-[4-({8-[(2R,3S)-3-(methanesulfonylmethyl)-2-methylazetidin-1-yl]-5-(propan-2-yl)isoquinolin-3-yl}amino)pyrimidin-2-yl]-4-methoxypiperidin-3-ol or (3R,4R,5S)-5-fluoro-1-[4-({8-[(2R,3S)-3-(methanesulfonylmethyl)-2-methylazetidin-1-yl]-5-(propan-2-yl)isoquinolin-3-yl}amino)pyrimidin-2-yl]-4-methoxypiperidin-3-ol], the IC50 at EGFR (L858R T790M C797S) was 20.1 to 30 nM; in assay [1] (setting [2]), 10.1 to 20 nM.

`CO[C@@H]1[C@H](O)CN(c2nccc(Nc3cc4c(C(C)C)ccc(N5CC(CS(C)(=O)=O)C5)c4cn3)n2)CC1(F)F` (single isomer, unassigned) [Compound 218, rac-5,5-difluoro-1-[4-[[5-isopropyl-8-[3-(methylsulfonylmethyl)azetidin-1-yl]-3-isoquinolyl]amino]pyrimidin-2-yl]-4-methoxy-piperidin-3-ol]: the IC50 at EGFR (L858R T790M C797S) was at most 15 nM; in assay [1] (setting [2]) it was at most 10 nM.

As to `CO[C@H]1CCN(c2nccc(Nc3cc4c(C(C)C)ccc(N5C[C@H](CS(C)(=O)=O)[C@H]5C)c4cn3)n2)C[C@@H]1N` (single isomer, unassigned) [Compound 89], the figures for the IC50 (on EGFR (L858R T790M C797S); in assay [1] (setting [2])) were at most 15 nM and at most 10 nM, respectively.

Take “(S)-ethyl({1-[3-({2-[(3S,4R)-3-fluoro-4-methoxypiperidin-1-yl]pyrimidin-4-yl}amino)-5-(propan-2-yl)isoquinolin-8-yl]azetidin-3-yl}methyl)imino-λ^6-sulfanone or (R)-ethyl({1-[3-({2-[(3S,4R)-3-fluoro-4-methoxypiperidin-1-yl]pyrimidin-4-yl}amino)-5-(propan-2-yl)isoquinolin-8-yl]azetidin-3-yl}methyl)imino-λ^6-sulfanone [Compound 273]”: the IC50 is at most 15 nM at EGFR (L858R T790M C797S) and 20.1 to 30 nM in assay [1] (inhibition of phosphorylation of mutant EGFR in NCI-H1975 cells).

Turning to `CN[C@H]1CCN(c2nccc(Nc3cc4c(C(C)C)ccc(N5C[C@H](CS(C)(=O)=O)[C@H]5C)c4cn3)n2)C[C@H]1F` (single isomer, unassigned) [Compound 306, N-{2-[(3R,4S)-3-fluoro-4-(methylamino)piperidin-1-yl]pyrimidin-4-yl}-8-[(2R,3S)-3-(methanesulfonylmethyl)-2-methylazetidin-1-yl]-5-(propan-2-yl)isoquinolin-3-amine or N-{2-[(3S,4R)-3-fluoro-4-(methylamino)piperidin-1-yl]pyrimidin-4-yl}-8-[(2R,3S)-3-(methanesulfonylmethyl)-2-methylazetidin-1-yl]-5-(propan-2-yl)isoquinolin-3-amine], the IC50 (on EGFR (L858R T790M C797S); in assay [1] (setting [2])) was 20.1 to 30 nM each time.

On to `CO[C@H]1CN(c2nccc(Nc3cc4c(C(C)C)cnc(N5C[C@H](CS(C)(=O)=O)[C@H]5C)c4cn3)n2)C[C@@H](F)[C@H]1O` (single isomer, unassigned) [Compound 308, (3R,4S,5S)-3-fluoro-1-[4-({8-[(2R,3S)-3-(methanesulfonylmethyl)-2-methylazetidin-1-yl]-5-(propan-2-yl)-2,7-naphthyridin-3-yl}amino)pyrimidin-2-yl]-5-methoxypiperidin-4-ol or (3S,4R,5R)-3-fluoro-1-[4-({8-[(2R,3S)-3-(methanesulfonylmethyl)-2-methylazetidin-1-yl]-5-(propan-2-yl)-2,7-naphthyridin-3-yl}amino)pyrimidin-2-yl]-5-methoxypiperidin-4-ol], for which the IC50 at EGFR (L858R T790M C797S) is at most 15 nM; in assay [1] (setting [2]), 10.1 to 20 nM.

Regarding `CCS(=O)(=O)C[C@H]1CN(c2cnc(C(C)C)c3cc(Nc4ccnc(N5CC[C@](C)(O)[C@H](F)C5)n4)ncc23)[C@@H]1C` (single isomer, unassigned) [Compound 195], the IC50 was at most 15 nM on EGFR (L858R T790M C797S) and at most 10 nM in assay [1] (setting [2]).

Consider `CC(C)c1ccc(N2C[C@H](CS(C)(=O)=O)[C@H]2C)c2cnc(Nc3ccnc(N4CC[C@H](N)C(F)(F)C4)n3)cc12` (single isomer, unassigned) [Compound 151, N-{2-[(4S)-4-amino-3,3-difluoropiperidin-1-yl]pyrimidin-4-yl}-8-[(2R,3S)-3-(methanesulfonylmethyl)-2-methylazetidin-1-yl]-5-(propan-2-yl)isoquinolin-3-amine or N-{2-[(4R)-4-amino-3,3-difluoropiperidin-1-yl]pyrimidin-4-yl}-8-[(2R,3S)-3-(methanesulfonylmethyl)-2-methylazetidin-1-yl]-5-(propan-2-yl)isoquinolin-3-amine], for which the IC50 on EGFR (L858R T790M C797S) was at most 15 nM; in assay [1] (setting [2]) it was at most 10 nM.

As to `CC(C)c1ccc(N2C[C@H](CS(C)(=O)=O)[C@H]2C)c2cnc(Nc3ccnc(N4CC[C@](F)(CO)C4)n3)cc12` (single isomer, unassigned) [Compound 270, [(3R)-3-fluoro-1-[4-({8-[(2R,3S)-3-(methanesulfonylmethyl)-2-methylazetidin-1-yl]-5-(propan-2-yl)isoquinolin-3-yl}amino)pyrimidin-2-yl]pyrrolidin-3-yl]methanol or [(3S)-3-fluoro-1-[4-({8-[(2R,3S)-3-(methanesulfonylmethyl)-2-methylazetidin-1-yl]-5-(propan-2-yl)isoquinolin-3-yl}amino)pyrimidin-2-yl]pyrrolidin-3-yl]methanol], the values for the IC50 (on EGFR (L858R T790M C797S); in assay [1] (setting [2])) were at most 15 nM and 10.1 to 20 nM, respectively.

`CCS(=O)(=O)CC1CN(c2ccc(C(C)C)c3cc(Nc4ccnc(N5CC[C@](C)(O)[C@H](F)C5)n4)ncc23)C1` (single isomer, unassigned) [Compound 277]: the IC50 was at most 15 nM on EGFR (L858R T790M C797S) and 10.1 to 20 nM in assay [1] (setting [2]).

Consider `CC(C)c1ccc(N2C[C@H](CS(C)(=O)=O)[C@H]2C)c2cnc(Nc3ccnc(N4CC[C@H](O)[C@H](F)C4)n3)cc12` [Compound 311, (3R,4S)-3-fluoro-1-[4-({8-[(2R,3S)-3-(methanesulfonylmethyl)-2-methylazetidin-1-yl]-5-(propan-2-yl)isoquinolin-3-yl}amino)pyrimidin-2-yl]piperidin-4-ol], for which the IC50 on EGFR (L858R T790M C797S) is at most 15 nM; in assay [1] (setting [2]), at most 10 nM.

As for `CO[C@H]1CCN(c2nccc(Nc3cc4c(C(C)C)cnc(N5C[C@H](CS(C)(=O)=O)[C@H]5C)c4cn3)n2)C[C@H]1F` [Compound 131, N-{2-[(3R,4S)-3-fluoro-4-methoxypiperidin-1-yl]pyrimidin-4-yl}-8-[(2R,3S)-3-(methanesulfonylmethyl)-2-methylazetidin-1-yl]-5-(propan-2-yl)-2,7-naphthyridin-3-amine], the IC50 at EGFR (L858R T790M C797S) is at most 15 nM; in assay [1] (setting [2]) it was at most 10 nM.

Consider `CC(C)c1ccc(N2C[C@H](CS(C)(=O)=O)[C@H]2C)c2cnc(Nc3ccnc(N4C[C@@H](F)[C@@H](O)[C@](C)(F)C4)n3)cc12` (single isomer, unassigned) [Compound 212, (3R,4R,5R)-3,5-difluoro-1-[4-({8-[(2R,3S)-3-(methanesulfonylmethyl)-2-methylazetidin-1-yl]-5-(propan-2-yl)isoquinolin-3-yl}amino)pyrimidin-2-yl]-3-methylpiperidin-4-ol or (3S,4S,5S)-3,5-difluoro-1-[4-({8-[(2R,3S)-3-(methanesulfonylmethyl)-2-methylazetidin-1-yl]-5-(propan-2-yl)isoquinolin-3-yl}amino)pyrimidin-2-yl]-3-methylpiperidin-4-ol], for which the IC50 was at most 15 nM at EGFR (L858R T790M C797S) and at most 10 nM in assay [1] (setting [2]).

On to `CCS(=O)(=O)CC1CN(c2ccc(C(C)C)c3cc(Nc4ccnc(N5CC[C@@H](OC)[C@@H](O)C5)n4)ncc23)C1` (single isomer, unassigned) [Compound 91, (3S,4R)-1-{4-[(8-{3-[(ethanesulfonyl)methyl]azetidin-1-yl}-5-(propan-2-yl)isoquinolin-3-yl)amino]pyrimidin-2-yl}-4-methoxypiperidin-3-ol or (3R,4S)-1-{4-[(8-{3-[(ethanesulfonyl)methyl]azetidin-1-yl}-5-(propan-2-yl)isoquinolin-3-yl)amino]pyrimidin-2-yl}-4-methoxypiperidin-3-ol], for which the IC50 on EGFR (L858R T790M C797S) was at most 15 nM; in assay [1] (setting [2]) it was at most 10 nM.

Regarding `CO[C@H]1CCN(c2nccc(Nc3cc4c(C(C)C)ncc(N5C[C@H](CS(C)(=O)=O)[C@H]5C)c4cn3)n2)C[C@H]1F` [Compound 140, N-{2-[(3R,4S)-3-fluoro-4-methoxypiperidin-1-yl]pyrimidin-4-yl}-8-[(2R,3S)-3-(methanesulfonylmethyl)-2-methylazetidin-1-yl]-5-(propan-2-yl)-2,6-naphthyridin-3-amine], the IC50 on EGFR (L858R T790M C797S) is at most 15 nM; in assay [1] (setting [2]), at most 10 nM.

As to `CC1(C)CN(c2nccc(Nc3cc4c(F)cc(F)c(N5CC(CS(C)(=O)=O)C5)c4cn3)n2)C[C@@H](F)[C@H]1O` (single isomer, unassigned) [Compound 86, (4S,5R)-1-[4-[[5,7-difluoro-8-[3-(methylsulfonylmethyl)azetidin-1-yl]-3-isoquinolyl]amino]pyrimidin-2-yl]-5-fluoro-3,3-dimethyl-piperidin-4-ol or (4R,5S)-1-[4-[[5,7-difluoro-8-[3-(methylsulfonylmethyl)azetidin-1-yl]-3-isoquinolyl]amino]pyrimidin-2-yl]-5-fluoro-3,3-dimethyl-piperidin-4-ol], the IC50 on EGFR (L858R T790M C797S) lay within 20.1 to 30 nM; in assay [1] (setting [2]) it was 30.1 to 50 nM.
